Assay results: PubChem BioAssay (NCI)
Values joined by “and” are separate entries in the source; they are usually repeats but may differ in a detail not shown here. Identical values can stand only once.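 96-well plates; 48 h exposure; 5 concentrations. Endpoints by linear interpolation between flanking doses. Not reached: highest tested concentration assigned. At the GI50, growth is halved. The concentration for full growth arrest is given as TGI.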

Assays:
Assay in all cases: NCI-60 cell line screen, 48 h
[1] = test system: CAKI-1 renal
[2] = test system: EKVX NSCLC
[3] = test system: HCT-15 colon
[4] = test system: HOP-62 NSCLC
[5] = test system: MALME-3M melanoma
[6] = test system: MOLT-4 leukemia
[7] = test system: NCI-H226 lung
[8] = test system: NCI-H522 lung
[9] = test system: OVCAR-5 ovarian
[10] = test system: SF-295 CNS
[11] = test system: SK-MEL-5 melanoma
[12] = test system: SK-OV-3 ovarian
[13] = test system: SNB-75 CNS

| SMILES | TGI [1] [µM] | TGI [2] | TGI [3] | TGI [4] | TGI [5] | TGI [6] [µM] | TGI [7] [µM] | TGI [8] [µM] | TGI [9] | TGI [10] [µM] | TGI [11] [µM] | TGI [12] | TGI [13] [µM] | GI50 [13] | GI50 [2] [µM] | GI50 [3] [µM] | GI50 [4] [µM] | GI50 [5] [µM] | GI50 [9] [µM] | GI50 [12] [µM] |
| --- | --- | --- | --- | --- | --- | --- | --- | --- | --- | --- | --- | --- | --- | --- | --- | --- | --- | --- | --- | --- |
| COC(=O)C1=C(C)NC(C)=C(C(=O)OC)C1c1ccc(/[N+]([O-])=C/c2ccccc2)cc1 | 35 | > 100 µM | > 100 µM | > 100 µM | 31.3 µM | 71.5 | > 100 | 27.9 | > 100 µM | > 100 | > 100 | > 100 µM | > 100 |  |  |  |  |  |  |  |
| CCCCCC(C[N+]1(C)CCOCC1)C(=O)/C=C/c1ccccc1 (stereo not given) | 32.1 | 38.2 µM | 25 µM | 69.2 µM | 32 µM | 27.4 | 25.6 | 9.39 | 37.3 µM | 21.6 | 28.1 | > 88.6 µM | 15.7 |  |  |  |  |  |  |  |
| O=C(C[n+]1ccccc1)NNC(=O)/C(=C/c1ccc2c(c1)OCO2)NC(=O)c1ccccc1 | > 100 | > 100 µM | > 63.5 µM | > 100 µM | > 100 µM | 82.7 | > 92.4 | > 70.8 | > 100 µM | > 100 | 98.4 | > 100 µM | > 95.9 |  |  |  |  |  |  |  |
| CSC1=C(SC)SC(=C2SC3=C(SC(=C4SCCS4)S3)S2)S1 | > 100 | > 100 µM | > 100 µM | > 100 µM | > 100 µM | > 100 | > 100 | > 100 | > 100 µM | > 100 | > 100 | > 100 µM | > 100 |  |  |  |  |  |  |  |
| Cc1ccc(S(=O)(=O)C2=Cc3ccc(C(F)(F)F)cc3C2(O)c2cccc(C(F)(F)F)c2)cc1 (stereo not given) | 14.6 | 9.83 µM | 4.27 µM | 18.8 µM | 3.48 µM | > 22.6 | 4.26 | 3.84 | 5.07 µM | 6.87 | 3.35 | 28.2 µM | 13.9 |  |  |  |  |  |  |  |
| O=[N+]([O-])c1ccc(-n2nnc(C3=NCCCN3)c2-c2ccc(Cl)cc2)cc1 | > 100 | > 100 µM | > 100 µM | > 100 µM | > 100 µM | > 100 | > 100 | > 100 | > 100 µM | > 100 | > 100 | > 100 µM | > 100 |  |  |  |  |  |  |  |
| NS(=O)(=O)c1ccc(-n2c(-c3cccs3)nc3ccc(I)cc3c2=O)cc1 | 36.6 | 54.3 µM | 50.9 µM | 84.2 µM | 43.2 µM | > 100 | 87.3 | 39.1 | 59.9 µM | 75.8 | 47.1 | 53.7 µM | 87.4 |  |  |  |  |  |  |  |
| O=C(O)c1nc(-c2ccccn2)c(-c2ccccn2)nc1C(=O)O | 8.5 | 13.6 µM | > 42.5 µM | 15.3 µM | 7.85 µM | > 28.3 | 4.7 | 23.2 | 18.3 µM | 21.8 | 8.53 | 16.3 µM | 11.6 |  |  |  |  |  |  |  |
| Cc1ccc2nc(-c3ccc(N)c(I)c3)sc2c1 | > 100 | > 100 µM | 23.2 µM | > 100 µM | > 100 µM | > 100 | 40.6 | 39.2 | > 100 µM | 44.9 | > 100 | > 100 µM | > 100 |  |  |  |  |  |  |  |
| Nc1ccc(C(=O)NN2C(=O)C(Cl)C2c2ccccc2Cl)cc1 (stereo not given) | 26.9 | 31.7 µM | 10.2 µM | 35.4 µM | 31.4 µM | 8.1 | 31.5 | 3.13 | 28.4 µM | 12.6 | 29.5 | 29.6 µM | 31.3 |  |  |  |  |  |  |  |
| NC(CCC(=O)NC(CSC(=O)N(O)c1ccc(Br)cc1)C(=O)NCC(=O)O)C(=O)O (stereo not given) | > 100 | > 100 µM | > 100 µM | > 100 µM | > 100 µM | > 100 | > 100 | > 100 | > 100 µM | > 100 | > 100 | > 100 µM | > 100 | 62.3 µM and 7.52 µM |  |  |  |  |  |  |
| CCN(CC)/C(Cl)=C(Cl)\C(=C1\Nc2ccc(OC)cc21)[N+](=O)[O-] | > 100 | > 100 µM | > 100 µM | > 100 µM | > 100 µM | 85.2 | 69.2 | 67.3 | > 100 µM | > 100 | > 100 | > 100 µM | 81.8 |  |  |  |  |  |  |  |
| N#CC(NNC(=O)Cc1ccccc1)c1ccccc1O (stereo not given) | > 89.9 | > 100 µM | > 100 µM | > 70.6 µM | 73.4 µM | > 100 | 68 | > 41.1 | > 90.9 µM | > 100 | > 72.2 | > 85.4 µM | 85.6 |  |  |  |  |  |  |  |
| COc1ccc(CCNC2=CC(=O)c3ncccc3C2=O)cc1OC | 12.2 | 29.6 µM | 5.09 µM | 7.9 µM | 2.03 µM | 23.7 | 3.19 | 8.36 | 6.63 µM | 2.21 | 0.793 | 24.4 µM | 2.13 |  |  |  |  |  |  |  |
| CCOC(=O)C(N)CSC(=O)NC (stereo not given) | 461 | 546 µM | 312 µM | 567 µM | 306 µM | 215 | 681 | 472 | 689 µM | 592 | 393 | 621 µM | 598 |  |  |  |  |  |  |  |
| CC(=O)c1sc2c(c1OC(=O)c1cccs1)c(=O)n(-c1ccccc1)c(=S)n2-c1ccccc1 | 61.1 | 51.1 µM | 36.5 µM | 33.9 µM | 6.7 µM | 60.8 | 9.84 | 6.07 | 13.2 µM | 7.13 | 25.8 | 52 µM | 68.8 |  |  |  |  |  |  |  |
| COc1ccc2c(c1)CCc1c-2[nH]c2ccc(OC)cc12 | > 100 | > 100 µM | > 100 µM | > 100 µM | > 100 µM | > 100 | > 100 | > 100 | > 100 µM | > 100 | > 100 | > 100 µM | > 100 |  |  |  |  |  |  |  |
| Cc1cccc(/C=N/NC(=S)NCCc2ccccn2)n1 | > 100 | > 100 µM | > 100 µM | > 75.1 µM | > 100 µM | > 100 | 66.3 | > 100 | > 100 µM | > 100 | > 100 | 43.5 µM | 75 |  |  |  |  |  |  |  |
| CCOC(=O)CC1c2ccc(O)cc2OC(=O)C1c1ccc([N+](=O)[O-])cc1 (stereo not given) | 94.5 | > 100 µM | > 100 µM | 68.2 µM | 70.3 µM | 78.6 | 58.4 | 66.5 | > 100 µM | > 100 | 29 | 85.5 µM | 56 |  |  |  |  |  |  |  |
| CC(=O)c1csc2c1C(=O)c1scc(C(C)=O)c1C2=O | 4.1 | 3.36 µM | 3.2 µM | 3.43 µM | 2.95 µM | 1.13 | 4.14 | 1.75 | 3.45 µM | 3.09 | 2.77 | 4.64 µM | 4.54 |  |  |  |  |  |  |  |
| CC1(C)OCC2OC3(c4nc(C#N)c(N)o4)OC(C)(C)OC3C2O1 (stereo not given) | > 100 | > 100 µM | > 100 µM | > 100 µM | > 100 µM | > 100 | > 100 | > 100 | > 100 µM | > 100 | > 100 | > 100 µM | > 100 |  |  |  |  |  |  |  |
| O=C1C(Cl)C(c2ccccc2)N1n1cnc2ccccc2c1=O (stereo not given) | > 100 | > 100 µM | > 100 µM | > 100 µM | > 100 µM | > 100 | > 100 | > 100 | > 100 µM | > 100 | > 100 | > 100 µM | 82.4 |  |  |  |  |  |  |  |
| C=C1C(=O)O[C@H]2[C@H]1[C@@H](OC(=O)C=C(C)C)CC1=C[C@@H](C[C@@]3(C)O[C@@H]23)OC1=O | 9.11 | 10.2 µM and 5.83 µM | 3.97 µM and 11.7 µM | 52.2 µM and 187 µM | 22.6 µM and 8.1 µM | 77.4 | 36.2 | 3.08 | 32.1 µM and 49 µM | 28.4 | 15 | 36.9 µM and 43.9 µM | 33.3 |  | 0.839 | 3.46 | 60.9 | 3.22 | 30 | 25 |
| N#Cc1sc2nc(/C=C3/C=CC=CC3=O)c(O)n2c1N | > 100 | > 100 µM | > 100 µM | > 100 µM | > 100 µM | 59.8 | > 100 | > 100 | > 100 µM | > 100 | > 100 | > 100 µM | > 100 |  |  |  |  |  |  |  |
| CN1CCOC1(C)CO (stereo not given) | > 100 | > 100 µM | > 100 µM | > 100 µM | > 100 µM | > 100 | > 100 | > 100 | > 100 µM | > 100 | > 100 | > 100 µM | > 100 |  |  |  |  |  |  |  |
| COc1cccc(CCn2c(N)c(-c3ccccc3)c3ccc([N+](=O)[O-])cc3c2=O)c1 | 16.7 | 24.8 µM | 27.9 µM | 24.4 µM | 33.6 µM | 49.5 | 11.7 | 9.37 | 46.9 µM | 22.7 | 19.3 | 23.3 µM | 11.1 |  |  |  |  |  |  |  |
